Assay results reported in the supplement of paper PMC10307832.

Columns and labels:
Experiment in all cases: relative viability (nuclei count vs DMSO), 5 days (fraction); higher = more cells survive
Sulindac + AZD7762 = compound: CC1=C(CC(=O)O)c2cc(F)ccc2/C1=C\c1ccc([S+](C)[O-])cc1 [Sulindac] + NC(=O)Nc1cc(-c2cccc(F)c2)sc1C(=O)N[C@H]1CCCNC1 [AZD7762] (partner 0.2 µM)
In short: (§1)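 Relative viability equals treated-well nuclei counts divided by vehicle-well nuclei counts. Counts came from 4× images of lung cancer cell lines grown in 1536-well plates for 5 days after pin-tool dosing on the day after seeding. Dosing used one drug alone or a fixed anchor-drug dose plus five library-drug doses (not always all listed) in √10 steps, and values are medians of duplicate plates.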

Sulindac + Vorinostat = compound: CC1=C(CC(=O)O)c2cc(F)ccc2/C1=C\c1ccc([S+](C)[O-])cc1 [Sulindac] + O=C(CCCCCCC(=O)Nc1ccccc1)NO [Vorinostat] (partner 1 µM)
In short: as §1

Sulindac + Olaparib = compound: CC1=C(CC(=O)O)c2cc(F)ccc2/C1=C\c1ccc([S+](C)[O-])cc1 [Sulindac] + O=C(c1cc(Cc2n[nH]c(=O)c3ccccc23)ccc1F)N1CCN(C(=O)C2CC2)CC1 [Olaparib] (partner 8 µM)
In short: as §1

[1] = compound: CN[C@@H]1C[C@H]2O[C@@](C)([C@@H]1OC)n1c3ccccc3c3c4c(c5c6ccccc6n2c5c31)C(=O)NC4 [Staurosporine] + O=C(CCCCCCC(=O)Nc1ccccc1)NO [Vorinostat] (partner 1 µM)
In short: as §1

Cell Line | relative viability (Sulindac + AZD7762; first compound 0.08 µM) | relative viability (Sulindac + AZD7762; first compound 0.253 µM) | relative viability (Sulindac + AZD7762; first compound 0.8 µM) | relative viability (Sulindac + AZD7762; first compound 2.53 µM) | relative viability (Sulindac + AZD7762; first compound 8 µM) | relative viability (Sulindac + Vorinostat; first compound 0.08 µM) | relative viability (Sulindac + Vorinostat; first compound 0.253 µM) | relative viability (Sulindac + Vorinostat; first compound 0.8 µM) | relative viability (Sulindac + Vorinostat; first compound 2.53 µM) | relative viability (Sulindac + Vorinostat; first compound 8 µM) | relative viability (Sulindac + Olaparib; first compound 0.08 µM) | relative viability (Sulindac + Olaparib; first compound 0.253 µM) | relative viability (Sulindac + Olaparib; first compound 0.8 µM) | relative viability (Sulindac + Olaparib; first compound 2.53 µM) | relative viability (Sulindac + Olaparib; first compound 8 µM) | relative viability ([1]; first compound 0.005 µM) | relative viability ([1]; first compound 0.01581 µM) | relative viability ([1]; first compound 0.05 µM) | relative viability ([1]; first compound 0.1581 µM) | relative viability ([1]; first compound 0.5 µM)
NCI-H1915 | 0.703 | 0.734 | 0.645 | 0.664 | 0.761 | 0.555 | 0.577 | 0.508 | 0.539 | 0.574 | 0.241 | 0.266 | 0.245 | 0.254 | 0.264 | 0.452 | 0.178 | 0.148 | 0.0885 | 0.0702
NCI-H650 | 1.03 | 0.899 | 0.766 | 0.914 | 0.978 | 0.506 | 0.429 | 0.334 | 0.379 | 0.579 | 0.442 | 0.431 | 0.341 | 0.425 | 0.472 | 0.32 | 0.162 | 0.234 | 0.181 | 0.151
NCI-H441 | 1.24 | 1.03 | 0.798 | 1.18 | 1.38 | 1.02 | 0.936 | 0.599 | 0.782 | 0.981 | 0.514 | 0.537 | 0.442 | 0.476 | 0.624 | 0.458 | 0.327 | 0.232 | 0.144 | 0.114
NCI-H1437 | 1.18 | 1.12 | 1.1 | 1.14 | 1.11 | 0.951 | 0.872 | 0.749 | 0.837 | 0.876 | 0.748 | 0.679 | 0.503 | 0.638 | 0.665 | 0.577 | 0.469 | 0.302 | 0.235 | 0.169
PC-3 [JPC-3] | 0.855 | 0.805 | 0.697 | 0.715 | 1.06 | 0.839 | 0.786 | 0.647 | 0.778 | 0.967 | 1.36 | 1.09 | 0.941 | 1.13 | 1.25 | 0.351 | 0.306 | 0.396 | 0.297 | 0.376
NCI-H1944 | 0.519 | 0.382 | 0.526 | 0.512 | 0.551 | 0.604 | 0.62 | 0.506 | 0.574 | 0.571 | 0.433 | 0.404 | 0.302 | 0.438 | 0.42 | 0.469 | 0.267 | 0.282 | 0.12 | 0.118
NCI-H2085 | 0.904 | 0.988 | 0.834 | 0.945 | 0.95 | 0.728 | 0.814 | 0.77 | 0.652 | 0.818 | 0.742 | 0.79 | 0.711 | 0.792 | 0.837 | 0.58 | 0.296 | 0.407 | 0.229 | 0.183
NCI-H2347 | 0.711 | 0.778 | 0.653 | 0.737 | 0.817 | 0.668 | 0.702 | 0.46 | 0.713 | 0.593 | 0.546 | 0.599 | 0.562 | 0.574 | 0.616 | 0.409 | 0.378 | 0.274 | 0.264 | 0.228
ABC-1 | 1.16 | – | 0.636 | 0.682 | 0.751 | 1.01 | 1.27 | 1.14 | 0.74 | 1.09 | 1.1 | 0.611 | 0.769 | 0.591 | 0.601 | 0.667 | 0.411 | 0.454 | 0.147 | 0.117
201T | 0.647 | 0.628 | 0.868 | 0.661 | 0.596 | 1.13 | 0.993 | 0.84 | 0.944 | 0.999 | 0.896 | 0.825 | 0.846 | 0.886 | 0.883 | 0.935 | – | 0.699 | 0.354 | 0.245
NCI-H1755 | 0.424 | 0.429 | 0.628 | 0.456 | 0.498 | 0.751 | 0.772 | 0.754 | 0.77 | 0.753 | 0.888 | 0.952 | 0.829 | 0.85 | 0.991 | 0.555 | 0.477 | 0.223 | 0.189 | 0.218
NCI-H647 | 0.592 | 0.5 | 0.362 | 0.575 | 0.488 | 0.604 | 0.952 | 0.409 | 0.628 | 0.549 | 0.689 | 0.577 | 0.346 | 0.398 | 0.785 | 0.247 | 0.117 | 0.0686 | 0.0506 | 0.0527
NCI-H1355 | 0.842 | 0.748 | 0.71 | 0.765 | 0.858 | 0.586 | 0.721 | 0.488 | 0.619 | 0.723 | 0.704 | 0.691 | 0.679 | 0.66 | 0.759 | 0.597 | 0.227 | 0.235 | 0.138 | 0.111
NCI-H1975 | 0.868 | 0.715 | 0.699 | 0.695 | 0.819 | 0.804 | 0.737 | 0.634 | 0.738 | 0.77 | 0.998 | 0.763 | 0.65 | 0.841 | 0.974 | 0.297 | 0.232 | 0.218 | 0.146 | 0.105
BEN | 0.728 | 0.727 | 0.598 | 0.604 | 0.776 | 0.576 | 0.57 | 0.539 | 0.614 | 0.617 | 0.964 | 1.07 | 1 | 1.05 | 1.06 | 0.879 | 0.885 | 0.506 | 0.319 | 0.264
NCI-H322M | 0.469 | 0.42 | 0.573 | 0.575 | 0.546 | 0.859 | 0.914 | 0.882 | 0.916 | 0.863 | 0.674 | 0.772 | 0.742 | 0.837 | 0.87 | 0.581 | 0.424 | 0.451 | 0.405 | 0.398
